In paper PMC11012289, “The Discovery of New Inhibitors of Insulin-Regulated Aminopeptidase by a High-Throughput Screening of 400,000 Drug-like Compounds” (International Journal of Molecular Sciences, 2024):
Where two headings read alike, the source gives them in different places.

Legend:
IRAP [1] = biological target: T1, IRAP (Homo sapiens, UniProt Q9UIQ6); assay: Deselection fluorescence IRAP assay with 10 µM zinc; format: biochemical; conditions: 10 µM ZnSO4 in assay buffer; for IC50: read-out: Fluorescence + Zn pIC50 (converted)
T1 construct: The screen was performed with the soluble truncated IRAP enzyme; made in house
T1 sequence (Q9UIQ6 155-1025 limits assumed): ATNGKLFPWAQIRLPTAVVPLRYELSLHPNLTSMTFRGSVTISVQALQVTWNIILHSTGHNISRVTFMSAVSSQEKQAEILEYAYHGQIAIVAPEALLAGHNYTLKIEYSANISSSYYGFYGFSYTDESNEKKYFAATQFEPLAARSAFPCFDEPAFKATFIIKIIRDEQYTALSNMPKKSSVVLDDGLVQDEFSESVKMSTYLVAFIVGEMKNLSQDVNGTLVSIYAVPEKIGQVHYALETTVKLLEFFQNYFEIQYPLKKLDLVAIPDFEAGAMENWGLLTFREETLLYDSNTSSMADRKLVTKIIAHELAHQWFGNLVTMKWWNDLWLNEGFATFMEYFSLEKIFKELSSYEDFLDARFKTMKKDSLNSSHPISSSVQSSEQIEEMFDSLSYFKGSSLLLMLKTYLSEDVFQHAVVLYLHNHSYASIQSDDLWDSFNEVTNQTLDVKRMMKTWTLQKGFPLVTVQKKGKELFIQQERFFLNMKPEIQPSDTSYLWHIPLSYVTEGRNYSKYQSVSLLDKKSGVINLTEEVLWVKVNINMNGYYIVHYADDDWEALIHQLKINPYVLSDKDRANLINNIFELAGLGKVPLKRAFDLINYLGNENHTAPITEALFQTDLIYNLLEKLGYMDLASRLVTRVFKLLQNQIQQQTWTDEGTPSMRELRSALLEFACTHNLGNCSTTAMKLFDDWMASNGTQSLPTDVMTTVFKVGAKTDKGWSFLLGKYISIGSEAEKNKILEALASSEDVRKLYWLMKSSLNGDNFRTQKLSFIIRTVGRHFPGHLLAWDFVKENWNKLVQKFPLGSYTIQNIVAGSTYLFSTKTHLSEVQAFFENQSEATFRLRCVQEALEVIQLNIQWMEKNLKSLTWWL
Procedure: To prepare the assay buffer (50 mM Tris-HCl pH 7.4, 150 mM NaCl, 0.1 mM PMSF, 0.05% BSA) of the primary and orthogonal assays, 1 M Tris-HCl was prepared by dissolving 60.57 g Trizma-base (Mw 121.14 g/mol) (Sigma 93362-250G) in 500 mL MQ water, and the pH was adjusted to 7.4 using 4 M HCl. The solution was filtered with a 0.45 μm filter and stored at room temperature (RT). Then, 2 M NaCl stock was prepared by dissolving 29.22 g NaCl (Mw 58.44 g/mol) (Sigma S7653-250G) in 250 mL MQ water. The solution was filtered with a 0.45 μm filter and stored at RT. Next, 100 mM Phenylmethanesulfonylfluoride (PMSF) stock was prepared by dissolving 1 g PMSF (Mw 174.19 g/mol) (Sigma 78830-1G) in 57.4 mL isopropanol (Sigma I9516-500ML) and stored at 4 °C. A 10% Bovine Serum Albumin (BSA) stock solution was prepared by dissolving 2 g BSA (Mw 66.5 kDa) (Sigma A7030-50G), which was dissolved in 20 mL MQ water. The solution was filtered with a 0.45 μm filter, aliquoted, and stored at −20 °C. For the deselection assay buffer (50 mM Tris-HCl pH 7.4, 150 mM NaCl, 0.1 mM PMSF, 0.05% BSA, 10 μM ZnSO4), 1 mM ZnSO4 solution was prepared by dissolving 28.8 mg ZnSO4 (Mw 287.56 g/mol) (Sigma Z0251-100G) in 100 mL MQ water. The solution was filtered with a 0.45 μm filter and stored at RT. For the TSA assay buffer (50 mM Tris HCL, 150 mM NaCl, pH 7.4), stocks of 1 M Tris HCL and 2 M NaCl were prepared as described above.

IRAP [2] = biological target: T1, IRAP; assay: Primary fluorescence IRAP assay (L-Leucine-7-amido-4-methylcoumarin cleavage); format: biochemical; conditions: for LipE: calculated from (pIC50Fluorescence − LogD); for LogEC50 (best-fit): log of concentration in M; for EC50: read-out: EC50 (best-fit)
Text: The primary biochemical assay was developed to measure the enzymatic activity of IRAP.
To ensure biochemically sound, optimal, robust, and affordable assay conditions for large-scale screening, several factors need to be considered. […] For both primary fluorescence and orthogonal absorbance assays, non-binding 1536-well assay plates were used, and 0.05% BSA was included in the assay buffer to minimize the issues associated with protein sticking to plastics. The substrate Km values were determined in two separate experiments using two different batches of IRAP protein. For this, the IRAP progress curve was monitored every 5 min for 2 h using an Envision multimode plate reader (PerkinElmer, Waltham, MA, USA).
First, 10 nL of test compounds (4 mM) or 100% DMSO was dispensed into the 1536-well assay plates using an Echo acoustic liquid handler (Beckman Coulter, Brea, CA, USA). Then, 2 μL of protein working solution (5 × 10^−4 mg/mL) was dispensed to the negative control (min effect) and compound wells (final well concentration 2.5 × 10^−4 mg/mL) using a Certus Flex liquid dispenser (Fritz Gyger AG, Thun, Switzerland) and 2 μL assay buffer to the positive control wells (max effect) using a FLEXdrop (PerkinElmer, Waltham, MA, USA).
Figure S9. Reference compounds in Fluorescence IRAP assay with different end volumes in 1536-well format.
mg/ml) and 2 or 4 µL L -Leucine-7-amido-4-methylcoumarin (f.a.c.
Plates were measured on the Envision every 10 minutes for 140 minutes (data
shown up to 2 hours). %Effect was calculated using no protein as MAX effect (assay buffer was added instead of IRAP).

[3] = parameters: method as in ELF screening history; conditions: ref ELF screening history, cited from earlier work; for Enzyme Active: number of ELF enzyme screens in which the compound was active; for Targets active: number of ELF screens in which the compound was active; for Enzyme Active %: share of ELF enzyme targets screened; for Targets Active %: share of all ELF targets screened
IRAP [4] = biological target: T1, IRAP; assay: Orthogonal absorbance IRAP assay (L-Leucine para-nitroanilide cleavage); format: biochemical; conditions: for IC50: read-out: Absorbance pIC50 (converted)
Text: The primary biochemical assay was developed to measure the enzymatic activity of IRAP. […] To establish an orthogonal assay, an alternative L-Leucine para-nitroanilide substrate was used, which IRAP turns over to L-Leucine and para-nitroaniline and is measurable by absorbance at 405 nm (Supplementary Figure S2B).
To ensure biochemically sound, optimal, robust, and affordable assay conditions for large-scale screening, several factors need to be considered. These include the final concentration of substrates, based on the determined substrate Km value; the assay kinetics and reaction linearity; achieving a minimal, rate limiting protein concentration; identifying optimal buffer additives and concentrations; the choice of assay plate type; the final assay volume per well; the stability of reagents; the magnitude and variance of the signal; and the potency and rank order of reference compounds. For both primary fluorescence and orthogonal absorbance assays, non-binding 1536-well assay plates were used, and 0.05% BSA was included in the assay buffer to minimize the issues associated with protein sticking to plastics. The substrate Km values were determined in two separate experiments using two different batches of IRAP protein. For this, the IRAP progress curve was monitored every 5 min for 2 h using an Envision multimode plate reader (PerkinElmer, Waltham, MA, USA). […] To evaluate if using substrate concentrations close to the determined Km values results in sufficient dynamic range within the linear range of the enzymatic reaction, Z′ and S/B were calculated for multiple time points up to 2.5 h in the presence and absence of reference compounds in both assays. The primary fluorescence assay reached an optimal Z′-value after 1 h when using 37.5 μM substrate (Supplementary Figure S5). For the absorbance, 2 h was required for the enzyme reaction time; however, using ~0.4 mM substrate was associated with increased assay variation and a poor Z′ (Supplementary Figure S6).
The orthogonal assay was performed in a black non-binding 1536-well plate (Corning 3728) and sealed with universal lids (Corning 3098). First, 20 nL of test compounds (4 mM) or 100% DMSO was dispensed into the 1536-well assay plates using an Echo acoustic liquid handler (Beckman Coulter). Then, 4 μL of protein working solution (5 × 10^−4 mg/mL) was dispensed to the negative control (min effect) and compound wells (final well concentration 2.5 × 10^−4 mg/mL) using the Certus Flex liquid dispenser (Fritz Gyger AG) and 4 μL assay buffer to the positive control wells (max effect) using the FLEXdrop (PerkinElmer). Next, 4 μL of 2 mM substrate working solution was dispensed into all wells using the FLEXdrop (final well concentration 1 mM). The assay plates were then centrifuged at 187.5× g for 30 s, incubated in the dark at RT for 120 min, and finally read on an Envision plate reader (PerkinElmer) (absorbance at 405 nm, 10 flashes per second). During the dose–response curve analysis in the orthogonal assay, 80 nL of compound (range 2.00 × 10^−3 M–2.74 × 10^−6 M) or 100% DMSO was dispensed into the assay plates using an Echo acoustic liquid handler (Beckman Coulter) with final well concentration range of 20 μM–27.4 nM compound and 1% DMSO.

IRAP [5] = biological target: T1, IRAP; assay: Thermal shift (TSA) IRAP assay; format: binding
Text: The Thermal shift assay (TSA) is a biophysical technique measuring protein thermal stability. The assay relies on a fluorescent dye that is quenched in an aqueous environment but fluoresces when de-solvated in non-polar environments, such as the hydrophobic pockets of proteins. The target protein is mixed with the dye and heated gradually until it becomes completely denatured; as it unfolds or melts, the dye binds to newly exposed hydrophobic regions of the protein, resulting in a significant increase in fluorescence emission detected by a PCR system. The melting temperature (Tm) is calculated from the protein melt curve, and changes in Tm (known as ΔTm) are correlated with changes in protein stability and ligand binding. […] For the TSA assay, vehicle (DMSO) or compound was dispensed into MicroAmp Endura optical qPCR plates at the desired volume using an Echo acoustic liquid handler. […] The plates were then centrifuged for 10 s at 1000 rpm and sealed with Clear PCR-compatible plate seals.

[6] = 37.5 µM L-Leucine-7-amido-4-methylcoumarin, 60 min RT, dose-response 20 µM-27.4 nM, read-out: Fluorescence IC50
[7] = 1 mM L-Leucine p-Nitroanilide, 120 min RT
[8] = screening hits at 30 µM, 1% DMSO
[9] = 1536-well format, steady-state velocity, read-out: Km (substrate)
[10] = 37.5 µM L-Leucine-7-amido-4-methylcoumarin, 60 min RT, dose-response 20 µM-27.4 nM, read-out: Fluorescence pIC50 (converted)

Cc1ccc(-c2nc(C3CCCN3C(=O)NCc3ccccc3)n3ccccc23)cc1 (racemic) [QHL36]
Fluorescence + Zn pIC50 (IRAP [1]): 5.31
Fluorescence pIC50 (IRAP [2]; 37.5 µM L-Leucine-7-amido-4-methylcoumarin, 60 min RT, dose-response 20 µM-27.4 nM): 5.40
IC50 (IRAP [2]; [6]): 3980 nM
LipE (IRAP [2]): 0.29
Enzyme Active [3]: 4
Targets active [3]: 6
Enzyme Active % [3]: 7.1%
Targets Active % [3]: 5.8%
Absorbance pIC50 (IRAP [4]; [7]): 5.80
TSA (∆°C), thermal shift of IRAP (IRAP [5]; [8]): 0.3 °C

O=S(=O)(Nc1cccc(-c2nnn[nH]2)c1)c1cc(Cl)c(Cl)cc1Cl [I, reference compound]
LogEC50 (best-fit) (IRAP [2]; 4 µl end volume, 30 min): -4.565
EC50 (IRAP [2]; 4 µl end volume, 30 min): 27200 nM
LogEC50 (best-fit) (IRAP [2]; 4 µl end volume, 60 min): -4.541
EC50 (IRAP [2]; 4 µl end volume, 60 min): 28800 nM
LogEC50 (best-fit) (IRAP [2]; 4 µl end volume, 90 min): -4.517
EC50 (IRAP [2]; 4 µl end volume, 90 min): 30400 nM
LogEC50 (best-fit) (IRAP [2]; 4 µl end volume, 120 min): -4.5
EC50 (IRAP [2]; 4 µl end volume, 120 min): 31600 nM
LogEC50 (best-fit) (IRAP [2]; 8 µl end volume, 30 min): -4.385
EC50 (IRAP [2]; 8 µl end volume, 30 min): 41200 nM
LogEC50 (best-fit) (IRAP [2]; 8 µl end volume, 60 min): -4.449
EC50 (IRAP [2]; 8 µl end volume, 60 min): 35600 nM
LogEC50 (best-fit) (IRAP [2]; 8 µl end volume, 90 min): -4.469
EC50 (IRAP [2]; 8 µl end volume, 90 min): 34000 nM
LogEC50 (best-fit) (IRAP [2]; 8 µl end volume, 120 min): -4.427
EC50 (IRAP [2]; 8 µl end volume, 120 min): 37400 nM
stabilization of the thermal melting temperature of IRAP (IRAP [5]; 10-point half-log concentration series): dose-dependent and saturable
IRAP Tm (IRAP [5]; compound at 400 µM): 69.05 ± 0.17 °C

CC(C)C[C@H](N)C(=O)Nc1ccc([N+](=O)[O-])cc1 [L-Leucine p-Nitroanilide, reference compound]
Km (IRAP [4]; [9]): 380 µM

Cc1cc(=O)oc2cc(NC(=O)[C@@H](N)CC(C)C)ccc12 [L-Leucine-7-amido-4-methylcoumarin, reference compound]
Km (IRAP [2]; [9]): 36.6 µM

O=C(Cc1ccccc1S(=O)(=O)N1CCc2ccccc2C1)NO [QHL1, 2-(2-((3,4-dihydroisoquinolin-2(1H)-yl)sulfonyl)phenyl)-N-hydroxyacetamide]
IC50 (IRAP [1]): 316 nM
IC50 (IRAP [2]; [10]): 316 nM
LipE (IRAP [2]): 4.85
Enzyme Active [3]: 2
Targets active [3]: 7
Enzyme Active % [3]: 2.1%
Targets Active % [3]: 4.7%
IC50 (IRAP [4]; [7]): 871 nM
ΔTm at 30 µM (IRAP [5]; [8]): 6.77 °C

O=C(NO)C(CS(=O)(=O)N1CCC(c2ccc(F)cc2Cl)C1)C1CCOCC1 (stereo not drawn) [QHL2]
IC50 (IRAP [1]): 339 nM
IC50 (IRAP [2]; [10]): 355 nM
LipE (IRAP [2]): 4.89
Enzyme Active [3]: 4
Targets active [3]: 5
Enzyme Active % [3]: 4.3%
Targets Active % [3]: 3.4%
IC50 (IRAP [4]; [7]): 794 nM
ΔTm at 30 µM (IRAP [5]; [8]): 3.7 °C

CC(C)C(CS(=O)(=O)N(Cc1cc2ccccc2o1)C(C)C)C(=O)NO (stereo not drawn) [QHL3]
IC50 (IRAP [1]): 389 nM
IC50 (IRAP [2]; [10]): 380 nM
LipE (IRAP [2]): 4.08
Enzyme Active [3]: 3
Targets active [3]: 4
Enzyme Active % [3]: 3.2%
Targets Active % [3]: 2.7%
IC50 (IRAP [4]; [7]): 708 nM
ΔTm at 30 µM (IRAP [5]; [8]): 5.22 °C

COc1ccc(S(=O)(=O)CCC(CCCc2ccccc2)C(=O)NO)cc1 (stereo not drawn) [QHL4]
IC50 (IRAP [1]): 676 nM
IC50 (IRAP [2]; [6]): 710 nM
LipE (IRAP [2]): 2.51
Enzyme Active [3]: 3
Targets active [3]: 5
Enzyme Active % [3]: 3.2%
Targets Active % [3]: 3.4%
IC50 (IRAP [4]; [7]): 2000 nM
ΔTm at 30 µM (IRAP [5]; [8]): 4 °C

O=C(NO)C1(CS(=O)(=O)N2CCC(c3ccc(F)cc3Cl)C2)CCC1 (stereo not drawn) [QHL5]
IC50 (IRAP [1]): 1120 nM
IC50 (IRAP [2]; [6]): 1200 nM
LipE (IRAP [2]): 3.79
Enzyme Active [3]: 3
Targets active [3]: 4
Enzyme Active % [3]: 3.3%
Targets Active % [3]: 2.7%
IC50 (IRAP [4]; [7]): 1950 nM
ΔTm at 30 µM (IRAP [5]; [8]): 4.29 °C
